For one experiment, the target named is T1, PDE10A (Mus musculus, UniProt Q8CA95).
T1 sequence (Q8CA95 1-779 isoform Q8CA95-2): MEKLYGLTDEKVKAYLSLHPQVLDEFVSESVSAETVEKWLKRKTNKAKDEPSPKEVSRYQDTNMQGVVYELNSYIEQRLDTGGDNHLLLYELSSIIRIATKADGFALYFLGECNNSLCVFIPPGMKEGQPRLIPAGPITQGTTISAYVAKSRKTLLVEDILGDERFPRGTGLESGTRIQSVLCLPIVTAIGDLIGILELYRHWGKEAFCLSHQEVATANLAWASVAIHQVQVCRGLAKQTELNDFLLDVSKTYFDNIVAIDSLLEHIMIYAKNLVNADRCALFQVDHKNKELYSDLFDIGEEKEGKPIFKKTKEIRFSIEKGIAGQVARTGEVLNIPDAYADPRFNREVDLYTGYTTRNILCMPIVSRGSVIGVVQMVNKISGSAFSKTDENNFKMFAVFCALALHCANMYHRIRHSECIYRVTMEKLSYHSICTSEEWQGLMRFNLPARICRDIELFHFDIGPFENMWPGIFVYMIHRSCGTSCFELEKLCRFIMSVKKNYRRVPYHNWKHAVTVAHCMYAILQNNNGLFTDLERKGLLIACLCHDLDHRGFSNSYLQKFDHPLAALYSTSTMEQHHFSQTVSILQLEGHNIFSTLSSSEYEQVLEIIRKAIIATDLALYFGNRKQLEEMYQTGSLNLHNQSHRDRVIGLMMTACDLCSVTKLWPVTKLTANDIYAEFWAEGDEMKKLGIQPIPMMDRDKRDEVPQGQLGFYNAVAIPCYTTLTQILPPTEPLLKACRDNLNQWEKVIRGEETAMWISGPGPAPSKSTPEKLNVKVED
The conditions noted are these: among inhibitors tested on PDE10A; cited from earlier work.

Experiment [1] has as its system Huntington's disease patient. In words: Clinical use of PDE10A modulator in a Huntington's disease patient (case report). To be noted: 200 mg twice daily resumed after 7 days of suspension. The format is in vivo, human. The protocol: A person was admitted to hospital from a long-term care facility due to progressive deterioration of their physical and mental symptoms caused by Huntington's disease. The patient had been diagnosed with Huntington's disease. Prior to admission to the hospital, they had become increasingly aggressive and uncooperative. Moreover, there appeared to be an increase in the number of psychotic episodes. […] The patient had been stable for a number of years on the antipsycotic haloperidol (3 mg/day). For the last two years, the haloperidol had been replaced by olanzapine (2.5-7.5 mg/day). Minocycline, a tetracycline derivative, was administered at 50 mg twice daily for 7 days, followed by 100 mg twice daily for 7 days and finally 200 mg twice daily for 5 weeks. […] The minocycline treatment was suspended for 7 days. […] Minocycline (200 mg twice daily) treatment will continue indefinitely. The improvement in behaviour and decrease in apparent psychosis has allowed for the transfer of the patient from the acute care facility back to long-term care.

Where only a bound is given, the exact number is not on record here.

As to `OCCN(CCO)c1nc(N2CCCCC2)c2nc(N(CCO)CCO)nc(N3CCCCC3)c2n1` [Dipyridamole], the “potency as inhibitor of PDE10A activity” value on PDE10A is given as “highest potency”. Take `CC(C)Cn1c(=O)n(C)c(=O)c2[nH]cnc21` [IBMX]: at PDE10A, the “potency as inhibitor of PDE10A activity” value is given as “potent inhibitor”. Consider `CN(C)c1ccc(O)c2c1C[C@H]1C[C@H]3[C@H](N(C)C)C(O)=C(C(N)=O)C(=O)[C@@]3(O)C(O)=C1C2=O` [Minocycline], for which the “time to response after resumed treatment” value in experiment [1] was at most 3 days. In the case of `CN1C(=O)c2[nH]c(Cc3ccc(C(F)(F)F)cc3)nc2N2C1=N[C@@H]1CCC[C@@H]12` [SCH 51866], the “potency as inhibitor of PDE10A activity” value on PDE10A is listed as “highest potency”.
